System: 4T1 tumor cells
Assay: Mouse bone metastasis model, intratibial 4T1 cells
Assay type: in vivo, mouse (BALB/c)
Details: for survival rate compared with the other groups: FIG. 8, days 13-27; for clinical signs scoring compared with the other groups: FIG. 9, days 0-27, high scoring = more clinical signs
Text: The purpose of this study was to assess the potential therapeutic efficacy of ACC stabilized with triphosphate (ACC-TP) on the development and progression of bone metastases in mouse model via intraperitoneal (IP) injections. The model is induced by intra osseous inoculation of 4T1 tumor cells (cells originated from mice mammary gland tumor). Two ACC concentrations were examined. Their efficacy was compared to CaCl2 as a control calcium source and to a common treatment of bone metastases (Bisphosphonate—Alendronic acid).
The study was designed in order to assess the potential therapeutic efficacy of ACC-TP via intraperitoneal (IP) injections, on the development and progression of bone metastases in mouse model. The cancer model was induced by Intratibial injections of cancer cells to the Tibia bone. Intratibial injections are used when focusing on the relationships of cancer cells and bone after a tumor has metastasized, thus is considered the most appropriate for such studies.
Female mice (BALB/c, 9 weeks old) were used for the experiment. […] Initial body weight was 16-19 gr. The mice were let to acclimatize 5 days prior to the experiment.
The first control or test items administration day was defined as “Day 1”. On study day “0” all mice were anesthetized used intraperitoneal injection of Ketamine (80 mg/kg) and Xylazine (5 mg/kg). 4T1 (CRL-2539, B1) cells were injected intratibial into the Tibia in a dose level of 70×10^3 cells and dose volume of 10 μl per animal.
The control or test Items comprising calcium were administered intraperitoneally by a 25 G needle, daily (6 days a week) from Day 1 until study termination. The Alendronic acid was administered subcutaneously once a day, 3 days a week.
At study termination (Day 23 and Day 27), animals were […] by CO2 asphyxiation.
The following measurements and observations were recorded: (i) Mortality and morbidity (daily); (ii) Clinical signs observations (twice a week); (iii) Body weight measurements (once a week and at study termination); (iv) Radiographic analysis; and (v) Amount of food and water consumption (once a week).
Observations were performed for any changes in skin, fur, eyes, mucous membranes, respiratory, occurrence of secretions and excretions (e.g. diarrhea). Changes in gait, posture and response to handling, as the presence of bizarre behavior, tremors, convulsions, sleep and coma were also included.
X-ray monitoring were performed at Day “0” and Day “20” (X-ray generator Girth 8015).

[1] = after intratibial 4T1 injection on day 0

SMILES: NCCCC(O)(P(=O)(O)O)P(=O)(O)O [Alendronic acid]
- survival rate compared with the other groups: survival rate is lower
- clinical signs scoring compared with the other groups: highest scoring of clinical signs
- day up to which no mice had deceased [1]: 19 days
- overall performance / therapeutic effect (conclusion from survival rate and clinical signs): worst performance

SMILES: [Ca+2].[Cl-].[Cl-] [CaCl2, calcium chloride]
- survival rate compared with the other groups: lower survival percentage
- clinical signs scoring compared with the other groups: higher number of clinical signs
- mice deceased as early as day [1]: 16 days
- survival percentages (up to day 23 of study duration): higher than 75%
